“And” between values parts separate entries of the source, which are not always exact repeats. Identical values can stand only once. Toxic doses and inconclusive results are not listed. Rule as the data show it: active = T/C of 150% or more; inactive = T/C below 125%.
System: L1210 leukemia ip in BDF1 mice, survival T/C
Assay: NCI In Vivo Anticancer Drug Screen. Data for tumor model L1210 Leukemia (intraperitoneal) in B6D2F1 (BDF1) mice
Conditions: endpoint: mean survival time, higher = longer survival
Procedure: The antitumor activity of compounds was measured in mice bearing transplantable tumors. Survival or tumor size were measured and the results are expressed as the measurement made in the treated group (T) divided by the measurement made in the vehicle treated control group (C). The tumor model used in this assay is L1210 Leukemia (intraperitoneal) in B6D2F1 (BDF1) mice

[1] = dose: 75.0 mg/kg/injection, schedule: Q01DX001 (ip), vehicle: saline
[2] = dose: 150.0 mg/kg/injection, schedule: Q01DX001 (ip), vehicle: saline
[3] = dose: 100.0 mg/kg/injection, schedule: Q01DX001 (ip), vehicle: Klucel (hydroxypropylcellulose) (HPC)
[4] = dose: 200.0 mg/kg/injection, schedule: Q01DX001 (ip), vehicle: Klucel (hydroxypropylcellulose) (HPC)
[5] = dose: 100.0 mg/kg/injection, schedule: Q01DX009 (ip), vehicle: saline with Tween-80
[6] = dose: 200.0 mg/kg/injection, schedule: Q01DX009 (ip), vehicle: saline with Tween-80
[7] = dose: 400.0 mg/kg/injection, schedule: Q01DX009 (ip), vehicle: saline with Tween-80
[8] = dose: 100.0 mg/kg/injection, schedule: Q01DX009 (ip), vehicle: Klucel (hydroxypropylcellulose) (HPC)
[9] = dose: 200.0 mg/kg/injection, schedule: Q01DX009 (ip), vehicle: Klucel (hydroxypropylcellulose) (HPC)
[10] = dose: 100.0 mg/kg/injection, schedule: Q04DX002 (ip), vehicle: Klucel (hydroxypropylcellulose) (HPC)
[11] = dose: 200.0 mg/kg/injection, schedule: Q04DX002 (ip), vehicle: Klucel (hydroxypropylcellulose) (HPC)
[12] = dose: 400.0 mg/kg/injection, schedule: Q01DX009 (ip), vehicle: Klucel (hydroxypropylcellulose) (HPC)
[13] = dose: 400.0 mg/kg/injection, schedule: Q04DX002 (ip), vehicle: Klucel (hydroxypropylcellulose) (HPC)
[14] = dose: 100.0 mg/kg/injection, schedule: Q04DX003 (ip), vehicle: Klucel (hydroxypropylcellulose) (HPC)
[15] = dose: 200.0 mg/kg/injection, schedule: Q04DX003 (ip), vehicle: Klucel (hydroxypropylcellulose) (HPC)
[16] = dose: 400.0 mg/kg/injection, schedule: Q04DX003 (ip), vehicle: Klucel (hydroxypropylcellulose) (HPC)
[17] = dose: 100.0 mg/kg/injection, schedule: Q01DX001 (ip), vehicle: saline
[18] = dose: 200.0 mg/kg/injection, schedule: Q01DX001 (ip), vehicle: saline
[19] = dose: 50.0 mg/kg/injection, schedule: Q01DX009 (ip), vehicle: saline with Tween-80

Measured: T/C

COc1ccc(/C=C/C(C)=O)cc1OC
inactive: dose: 6.25 mg/kg/injection, schedule: Q01DX009 (ip), vehicle: saline 91 % of control | dose: 12.5 mg/kg/injection, schedule: Q01DX009 (ip), vehicle: saline 100 % of control | dose: 25.0 mg/kg/injection, schedule: Q01DX009 (ip), vehicle: saline 91 % of control | dose: 50.0 mg/kg/injection, schedule: Q01DX009 (ip), vehicle: saline 87 % of control | dose: 100.0 mg/kg/injection, schedule: Q01DX009 (ip), vehicle: saline 88 % of control | dose: 200.0 mg/kg/injection, schedule: Q01DX009 (ip), vehicle: saline 88 % of control

CC/C=C(\C)C1(CCC)C(=O)NC(=O)NC1=O
inactive: [1] 102 % of control | [2] 107 % of control

CNc1ncnc(Cl)c1N
inactive: [3] 103 % of control | [4] 107 % of control

O=C1c2ccccc2C(=O)N1CNc1cccc(NCN2C(=O)c3ccccc3C2=O)n1
inactive: [5] 92 % of control | [6] 91 % of control | [7] 93 % of control

CCCCCCC(=O)OCc1ccc(-c2ccccc2)cc1
inactive: [1] 90 % of control | [2] 87 % of control | dose: 300.0 mg/kg/injection, schedule: Q01DX001 (ip), vehicle: saline 92 % of control

O=S1(=O)CCCC(c2ccccc2)=C1c1ccccc1
inactive: dose: 50.0 mg/kg/injection, schedule: Q01DX009 (ip), vehicle: Klucel (hydroxypropylcellulose) (HPC) 102 % of control | [8] 105 % of control | [9] 91 % of control

CCC(O)CNC1CCCCC1 (configuration not stated)
inactive: [1] 98 % of control | [2] 98 % of control

Cc1ccc(NC(=O)Oc2ccc(Nc3ccccc3)cc2)cc1
inactive: [8] 103 % of control | [10] 98 % of control | [9] 95 % of control | [11] 95 % of control | [12] 98 % of control | [13] 91 % of control

CCCCN1C(=O)C(=O)N(c2ccccc2C(F)(F)F)C1=O
inactive: [8] 106 % of control and 88 % of control | [10] 94 % of control and 105 % of control | [9] 106 % of control | [11] 101 % of control and 90 % of control | [12] 107 % of control | [13] 94 % of control and 116 % of control

CC(=O)Nc1ccc(S(=O)(=O)F)cc1[N+](=O)[O-]
inactive: dose: 100.0 mg/kg/injection, schedule: Q01DX009 (ip), vehicle: saline sonified 93 % of control | [14] 97 % of control | dose: 200.0 mg/kg/injection, schedule: Q01DX009 (ip), vehicle: saline sonified 114 % of control | [15] 93 % of control | dose: 400.0 mg/kg/injection, schedule: Q01DX009 (ip), vehicle: saline sonified 101 % of control | [16] 93 % of control

Cc1ncc(CCl)c2c1OC(C)(C)OC2
inactive: [1] 100 % of control | [17] 100 % of control | [2] 101 % of control | [18] 94 % of control

CCCCS(=O)(=O)N1CCC(C)CC1
inactive: [10] 87 % of control | [11] 91 % of control | [13] 94 % of control

CCOC(=O)/C(C(=O)c1ccccc1)=C(\OC(=O)c1ccccc1)c1ccccc1
inactive: dose: 50.0 mg/kg/injection, schedule: Q01DX001 (ip), vehicle: carboxymethylcellulose (CMC) 96 % of control | dose: 100.0 mg/kg/injection, schedule: Q01DX001 (ip), vehicle: carboxymethylcellulose (CMC) 102 % of control | dose: 200.0 mg/kg/injection, schedule: Q01DX001 (ip), vehicle: carboxymethylcellulose (CMC) 91 % of control

Nc1cccc2c1C(=O)c1cc(Cl)c(Cl)cc1C2=O
inactive: [19] 104 % of control | [5] 97 % of control | [6] 89 % of control

O=C(Nc1ccccc1-c1ccc([N+](=O)[O-])cc1)c1ccc(Cl)c(Cl)c1
inactive: dose: 100.0 mg/kg/injection, schedule: Q04DX003 (ip), vehicle: water 93 % of control | dose: 200.0 mg/kg/injection, schedule: Q04DX003 (ip), vehicle: water 93 % of control | dose: 400.0 mg/kg/injection, schedule: Q04DX003 (ip), vehicle: water 93 % of control

CCc1ccc(NS(=O)(=O)c2ccccc2[N+](=O)[O-])cc1
inactive: [8] 105 % of control | [9] 105 % of control | [12] 113 % of control

CC1CCC2C(C1)N(C(C)C)OC2(C)C (configuration not stated)
inactive: [19] 104 % of control | [5] 98 % of control | dose: 100.0 mg/kg/injection, schedule: Q04DX003 (ip), vehicle: saline with Tween-80 108 % of control | dose: 200.0 mg/kg/injection, schedule: Q04DX003 (ip), vehicle: saline with Tween-80 102 % of control

O=C(Nc1c(Oc2ccc(Cl)cc2)ccc(Cl)c1S(=O)(=O)O)Nc1c(Oc2ccc(Cl)cc2)ccc(Cl)c1S(=O)(=O)O
inactive: dose: 100.0 mg/kg/injection, schedule: Q01DX001 (ip), vehicle: acetone 95 % of control | dose: 100.0 mg/kg/injection, schedule: Q04DX003 (ip), vehicle: saline 95 % of control | dose: 200.0 mg/kg/injection, schedule: Q04DX003 (ip), vehicle: saline 96 % of control | dose: 400.0 mg/kg/injection, schedule: Q01DX001 (ip), vehicle: acetone 92 % of control

OC1(c2ccccc2)C=C(c2ccccc2)C=C(c2ccccc2)O1 (configuration not stated)
inactive: dose: 50.0 mg/kg/injection, schedule: Q01DX001 (ip), vehicle: Klucel (hydroxypropylcellulose) (HPC) 87 % of control | [3] 92 % of control | [4] 94 % of control

CNc1ccc(C(=O)O)cc1OC
inactive: [5] 95 % of control | [6] 91 % of control | [7] 88 % of control

CN(C)c1ncnc(N)n1
inactive: [8] 91 % of control | [14] 95 % of control | [9] 88 % of control | [15] 98 % of control | [12] 90 % of control | [16] 97 % of control

CC(SC(C)C(=O)NN)C(=O)NN (configuration not stated)
inactive: dose: 50.0 mg/kg/injection, schedule: Q01DX001 (ip), vehicle: saline 102 % of control | [17] 107 % of control | [18] 105 % of control | dose: 200.0 mg/kg/injection, schedule: Q01DX Z (ip), vehicle: carboxymethylcellulose (CMC) 94 % of control | dose: 296.0 mg/kg/injection, schedule: Q01DX Z (ip), vehicle: methylcellulose (MC) 98 % of control | dose: 370.0 mg/kg/injection, schedule: Q01DX Z (ip), vehicle: methylcellulose (MC) 104 % of control | dose: 400.0 mg/kg/injection, schedule: Q01DX001 (ip), vehicle: saline 100 % of control | dose: 400.0 mg/kg/injection, schedule: Q01DX Z (ip), vehicle: carboxymethylcellulose (CMC) 97 % of control | dose: 555.0 mg/kg/injection, schedule: Q01DX Z (ip), vehicle: methylcellulose (MC) 110 % of control | dose: 800.0 mg/kg/injection, schedule: Q01DX Z (ip), vehicle: carboxymethylcellulose (CMC) 111 % of control | dose: 833.0 mg/kg/injection, schedule: Q01DX Z (ip), vehicle: methylcellulose (MC) 119 % of control

CC(C)CC(C=NCC(CCN(C)C)(CC(C)C)c1cccc2ccccc12)(CCN(C)C)c1cccc2ccccc12 (configuration not stated)
inactive: dose: 12.5 mg/kg/injection, schedule: Q01DX009 (ip), vehicle: Klucel (hydroxypropylcellulose) (HPC) 106 % of control | dose: 12.5 mg/kg/injection, schedule: Q04DX003 (ip), vehicle: Klucel (hydroxypropylcellulose) (HPC) 106 % of control | dose: 25.0 mg/kg/injection, schedule: Q01DX009 (ip), vehicle: Klucel (hydroxypropylcellulose) (HPC) 88 % of control | dose: 25.0 mg/kg/injection, schedule: Q04DX003 (ip), vehicle: Klucel (hydroxypropylcellulose) (HPC) 94 % of control | dose: 50.0 mg/kg/injection, schedule: Q04DX003 (ip), vehicle: Klucel (hydroxypropylcellulose) (HPC) 92 % of control

O=C(Nc1ccccc1)C(Cl)Cl
inactive: [5] 96 % of control | [6] 91 % of control | [7] 96 % of control

Source: PubChem BioAssay AID248 (DTP/NCI, 2004)
